The values below come from US20240254095A1, “NMDA Receptor Antagonist and Use Thereof” (priority 2021, published 2024).

Structures can show the parent of a compound that is named as a salt.

In one assay the target is T1, human NMDA receptors GluN1 and GluN2A subunits (GluN2A-containing NMDAR) (Homo sapiens, UniProt Q05586+Q12879).
T1 construct: expressed in transfected cells; host or cells: HEK293 cells, transient liposome transfection of TRE-GluN1-GluN2A, tTA and pCAG-EGFP
T1 sequence (Q12879 23-1464, other chains not shown): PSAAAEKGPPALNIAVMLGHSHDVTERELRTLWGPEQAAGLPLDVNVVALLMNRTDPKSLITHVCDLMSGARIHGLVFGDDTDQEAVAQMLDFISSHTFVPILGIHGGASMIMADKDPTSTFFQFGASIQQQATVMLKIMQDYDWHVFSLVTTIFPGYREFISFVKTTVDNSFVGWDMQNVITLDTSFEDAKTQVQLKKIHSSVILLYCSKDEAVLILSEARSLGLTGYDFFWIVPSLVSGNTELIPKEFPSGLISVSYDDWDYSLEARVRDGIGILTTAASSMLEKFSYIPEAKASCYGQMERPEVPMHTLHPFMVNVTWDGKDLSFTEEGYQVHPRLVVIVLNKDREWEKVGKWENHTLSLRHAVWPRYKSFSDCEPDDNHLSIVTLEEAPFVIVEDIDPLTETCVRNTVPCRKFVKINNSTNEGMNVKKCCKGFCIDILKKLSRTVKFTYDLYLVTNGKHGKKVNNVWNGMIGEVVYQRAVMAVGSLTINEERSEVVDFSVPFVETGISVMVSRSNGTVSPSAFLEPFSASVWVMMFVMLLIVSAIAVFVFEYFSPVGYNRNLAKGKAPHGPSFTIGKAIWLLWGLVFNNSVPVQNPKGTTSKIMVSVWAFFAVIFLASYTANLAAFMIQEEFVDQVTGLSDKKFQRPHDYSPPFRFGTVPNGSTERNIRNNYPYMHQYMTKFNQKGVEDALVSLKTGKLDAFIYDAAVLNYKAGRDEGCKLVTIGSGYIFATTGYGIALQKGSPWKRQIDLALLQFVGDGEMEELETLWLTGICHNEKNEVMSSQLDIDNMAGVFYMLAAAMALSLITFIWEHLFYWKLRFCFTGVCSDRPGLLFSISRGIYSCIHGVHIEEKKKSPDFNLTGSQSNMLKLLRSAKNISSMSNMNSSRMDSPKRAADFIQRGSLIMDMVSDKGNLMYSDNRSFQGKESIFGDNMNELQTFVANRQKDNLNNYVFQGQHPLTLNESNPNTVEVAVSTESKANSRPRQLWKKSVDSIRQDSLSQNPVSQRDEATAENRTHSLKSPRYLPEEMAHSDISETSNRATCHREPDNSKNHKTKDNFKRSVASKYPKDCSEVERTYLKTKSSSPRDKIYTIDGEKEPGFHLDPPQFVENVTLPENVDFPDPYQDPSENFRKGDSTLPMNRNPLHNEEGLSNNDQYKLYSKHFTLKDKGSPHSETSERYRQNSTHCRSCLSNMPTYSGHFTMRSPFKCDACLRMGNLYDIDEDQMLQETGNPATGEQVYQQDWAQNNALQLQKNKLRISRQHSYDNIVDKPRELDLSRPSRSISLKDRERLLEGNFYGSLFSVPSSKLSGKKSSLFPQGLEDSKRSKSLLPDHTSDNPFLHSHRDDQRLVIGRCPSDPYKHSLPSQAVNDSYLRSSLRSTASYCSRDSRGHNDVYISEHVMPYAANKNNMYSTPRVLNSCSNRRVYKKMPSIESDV
As to the kind of experiment: cell-based.
Details: not given
How it is done:
On the day before transfection, HEK293 cells were seeded in a 24-well plate with a 10 mm glass sheet, which was coated with polylysine in advance to increase the adhesion capacity of the cells. The plate was added with DMEM medium containing 10% FBS and incubated at 37° C., in 5% CO2 incubator. When the cell fusion reached 60%-70% after 18-24 hours, the plasmid cDNAs containing TRE-GluN1-GluN2A of human GluN1 and GluN2A, tTA, and pCAG-EGFP were transfected into HEK293 by liposome transfection (TRE-GluN1-GluN2A:tTA:pCAG-EGFP is 0.2 μg:0.2 μg:0.02 μg). Before transfection, anew DMEM medium was changed and added with 1 μg/mL Dox (doxycycline) to induce stable expression in the medium, and added with 100 μM D-APV and 10 mM MgCl2 to avoid cell excitatory toxicity caused by NMDAR overexpression. Cells with green fluorescence were selected for electrophysiological recording after transfection for about 24 h.
A glass plate seeded with HEK293 cells was placed in a recording bath and perfused with the extracellular fluid at a rate of 4 mL/min (NaCl 140 mM, KCl 2.8 mM, HEPES 10 mM, CaCl2 1 mM, glycine 0.1 mM, pH 7.2). The channels of the ALA-VC^3 eight-channel pressure perfusion system were filled with extracellular fluid for washing, extracellular fluid containing glutamic acid (100 μM), and extracellular fluid containing glutamic acid and compound to be tested, respectively, with a drop rate of about 1 drop/sec and 10 μL/drop. HEK293 cells with moderate green fluorescence intensity and good adhesion were selected under a fluorescence microscope for recording. The microglass tube of the perfusion system was placed about ten cells away from the cells to be recorded, and the drug was sprayed to the cell surface under the pressure of air (0.02 MPa). The glass electrode was prepared by drawing with a microelectrode drawing instrument with a resistance of 4-6 MΩ and filled with electrode liquid (CsCl 125 mM, HEPES 10 mM, EGTA 11 mM). The microelectrode manipulator was used to slowly push the glass electrode towards the cells. The electrode was attached to the cell membranes and applied with negative pressure, so that a high-resistance seal of more than 1 GΩ was formed between the electrode tip and the cell membrane, and then negative pressure was given to suck through the cell membrane to form a whole-cell recording mode. After the formation of whole-cell recording mode, the cell membrane potential was clamped at −70 mV. The extracellular fluid containing 100 μM glutamic acid, the extracellular fluid containing 100 μM glutamic acid and the compound to be tested, and the extracellular fluid were sprayed to the cell membrane surface sequentially through the perfusion system for 10 s, 20 s, and 10 s to record the NMDA receptor-mediated current and evaluate the inhibitory effect of the compound on GluN2A-containing NMDAR. The experimental process was controlled by pCLAMP 10.6, and the Digidata 1440A digital-to-analog converter was used to complete the generation of stimulus signal and the acquisition of feedback signal.
The ordinate in the figure is the normalized current ratio, which represents the ratio of the current mediated by NMDAR after administration of ketamine and the compound at a concentration of 10 μM to the current mediated by NMDAR before administration. […] Ketamine was used as a positive control.
The inhibitory percentages of the compound according to the present disclosure on NMDAR-mediated current=[…]/NMDAR mediated-current before administration*100%.
`CC1(C)CNC2(c3ccccc3)CCCCC2OC1.Cl` (stereo not shown) [Compound 20, 3,3-dimethyl-5a-phenyldecahydrobenzo[b][1,4]olanzapine hydrochloride]: the current inhibitory percentages stood at 64.86%.

The assay is the same for the next values; noted with them: HEK293, read-out: current inhibitory percentages.
As for `CC1(C)CCC2OCCNC2(c2ccccc2)C1` (stereo not shown) [Compound 31, 6,6-dimethyl-4a-phenyloctahydro-2H-benzo[b][1,4]oxazine hydrochloride], the inhibition at 10 µM stood at 71.6%.

The assay is the same for the next values; noted with them: NMDAR-mediated current, HEK293 cells expressing human GluN1/GluN2A, 100 μM glutamic acid, clamped at −70 mV; compound 10 μM; read-out: current inhibitory percentages.
In the case of `Cc1cccc(C23CCCCC2OCCN3)c1` (stereo not shown) [Compound 10, 4a-(3-methylphenyl)octahydro-2H-benzo[b][1,4]oxazine formate], the inhibition at 10 µM amounted to 98.3%. Same read-out and setting: to `CC1CCC2OCCNC2(c2ccccc2)C1` (stereo not shown) [Compound 7, 6-methyl-4a-phenyloctahydro-2H-benzo[b][1,4]oxazine formate] belongs 86.4%.

With `Fc1ccc(C23CCCCC2OCCN3)cc1` (stereo not shown) [Compound 4, 4a-(4-fluorophenyl)octahydro-2H-benzo[b][1,4]oxazine formate], the inhibition at 10 µM was determined as 83.7%.

As for `COc1ccc(C23CCCCC2OCCN3)c(Cl)c1` (stereo not shown) [Compound 34, 4a-(2-chloro-4-methoxyphenyl)octahydro-2H-benzo[b][1,4]oxazine hydrochloride], the inhibition at 10 µM was 48.6%.

As to `Fc1cccc(C23CCCCC2OCCN3)c1F` (stereo not shown) [Compound 5, 4a-(2,3-difluorophenyl)octahydro-2H-benzo[b][1,4]oxazine formate], the inhibition at 10 µM is 54.5%. The same measure, in the same setting: next, `CCOc1cccc(C23CCCCC2OCCN3)c1` (stereo not shown) [Compound 33, 4a-(3-ethoxyphenyl)octahydro-2H-benzo[b][1,4]oxazine hydrochloride]: 76.4%; `CN1CCOC2CCCCC21c1ccccc1` (stereo not shown) [Compound 19, 4-methyl-4a-phenyloctahydro-2H-benzo[b][1,4]oxazine hydrochloride]: 17.8%.

In the case of `Cc1ccc(C)c(C23CCCCC2OCCN3)c1` (stereo not shown) [Compound 28, 4a-(2,5-dimethylphenyl)octahydro-2H-benzo[b][1,4]oxazine hydrochloride], the inhibition at 10 µM is 87.8%. With `c1ccc(C23CCCCC2OCCN3)cc1` (stereo not shown) [Compound 1, 4a-phenyloctahydro-2H-benzo[b][1,4]oxazine hydrochloride], the inhibition at 10 µM stood at 115%. Still for that read-out and setting: next, `COc1cccc(C23CCCCC2OCCN3)c1` (stereo not shown) [Compound 21, 4a-(3-methoxyphenyl)octahydro-2H-benzo[b][1,4]oxazine hydrochloride]: 71.5%; `Clc1cccc(C23CCCCC2OCCN3)c1Cl` (stereo not shown) [Compound 26, 4a-(2,3-dichlorophenyl)octahydro-2H-benzo[b][1,4]oxazine hydrochloride]: 92%; `Fc1cccc(C23CCCCC2OCCN3)c1` (stereo not shown) [Compound 3, 4a-(3-fluorophenyl)octahydro-2H-benzo[b][1,4]oxazine hydrochloride]: 21.2%.

Regarding `CC1CCCC2(c3ccccc3)NCCOC12` (stereo not shown) [Compound 16, 8-methyl-4a-phenyloctahydro-2H-benzo[b][1,4]oxazine formate], the inhibition at 10 µM was found to be 107%. Still for that read-out and setting: to `Cc1ccccc1C12CCCCC1OCCN2` (stereo not shown) [Compound 12, 4a-(2-methylphenyl)octahydro-2H-benzo[b][1,4]oxazine formate] belongs 33.7%; to `CC(C)(C)c1ccc(C23CCCCC2OCCN3)cc1` (stereo not shown) [Compound 25, 4a-(4-(tertbutyl)phenyl)octahydro-2H-benzo[b][1,4]oxazine hydrochloride], 11.2%.

For the compound `Cc1ccc(C23CCCCC2OCCN3)cc1` (stereo not shown) [Compound 14, 4a-(4-methylphenyl)octahydro-2H-benzo[b][1,4]oxazine formate], the inhibition at 10 µM amounted to 45.2%. With `CC1CCCC2OCCNC12c1ccccc1` (stereo not shown) [Compound 17, 5-methyl-4a-phenyloctahydro-2H-benzo[b][1,4]oxazine formate], the inhibition at 10 µM stood at 86.6%. Turning to `COc1ccccc1C12CCCCC1OCCN2` (stereo not shown) [Compound 2, 4a-(2-methoxyphenyl)octahydro-2H-benzo[b][1,4]oxazine hydrochloride], the inhibition at 10 µM amounted to 56%.

As for `Fc1cccc(Cl)c1C12CCCCC1OCCN2` (stereo not shown) [Compound 36, 4a-(2-chloro-6-fluorophenyl)octahydro-2H-benzo[b][1,4]oxazine hydrochloride], the inhibition at 10 µM was found to be 42.5%. On the same count and under the same terms, to `Cc1cccc(C)c1C12CCCCC1OCCN2` (stereo not shown) [Compound 24, 4a-(2,6-dimethylphenyl)octahydro-2H-benzo[b][1,4]oxazine hydrochloride] belongs 73.7%. `CC1CCC2(c3ccccc3)NCCOC2C1` (stereo not shown) [Compound 18, 7-methyl-4a-phenyloctahydro-2H-benzo[b][1,4]oxazine formate]: the inhibition at 10 µM was 84.4%.

As to `FC(F)(F)c1ccc(C23CCCCC2OCCN3)cc1` (stereo not shown) [Compound 23, 4a-(4-(trifluoromethyl)phenyl)octahydro-2H-benzo[b][1,4]oxazine hydrochloride], the inhibition at 10 µM worked out at 9.25%.

Consider `Fc1ccc(Cl)c(C23CCCCC2OCCN3)c1` (stereo not shown) [Compound 32, 4a-(2-chloro-5-fluorophenyl)octahydro-2H-benzo[b][1,4]oxazine hydrochloride], for which the inhibition at 10 µM turned out to be 102%. Same read-out and setting: next, `CCC1CCC2OCCNC2(c2ccccc2)C1` (stereo not shown) [Compound 8, 6-ethyl-4a-phenyloctahydro-2H-benzo[b][1,4]oxazine formate]: 28.9%; `Fc1cccc(C23CCCCC2OCCN3)c1Cl` (stereo not shown) [Compound 29, 4a-(2-chloro-3-fluorophenyl)octahydro-2H-benzo[b][1,4]oxazine hydrochloride]: 85.7%; `Fc1ccc(C23CCCCC2OCCN3)cc1F` (stereo not shown) [Compound 30, 4a-(3,4-difluorophenyl)octahydro-2H-benzo[b][1,4]oxazine hydrochloride]: 86.6%.

With `Cc1cscc1[C@]12CCCC[C@H]1OCCN2` [Compound 40, (4aR,8aR)-4a-(4-methyl-3-thiophenyl)octahydro-2H-benzo[b][1,4]oxazine hydrochloride], the inhibition at 10 µM is 89.3%.

Take `CC(C)c1ccccc1C12CCCCC1OCCN2` (stereo not shown) [Compound 27, 4a-(2-isopropylphenyl)octahydro-2H-benzo[b][1,4]oxazine hydrochloride]: the inhibition at 10 µM turned out to be 85.6%. Same read-out and setting: to `FC(F)(F)Oc1cccc(C23CCCCC2OCCN3)c1` (stereo not shown) [Compound 22, 4a-(3-(trifluoromethoxy)phenyl)octahydro-2H-benzo[b][1,4]oxazine hydrochloride] belongs 45.8%.
